For this test, the target named is SIK2 (Homo sapiens, UniProt Q9H0K1). The experiment in a line: SIK2 Enzymatic Assay High Version 2 (High ATP). The format is biochemical. The procedure, abridged: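 At room temperature, enzyme (6 nM, 2× final) was preincubated with compound for 30 min, then 6 mM ATP and 400 μM HDAC5tide (both 2× final) were added for 2 h. ADP formed was measured by ADP-Glo Max (2 h reagent, 1 h detection) using luminescence.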

[1] abbreviates: enzyme 6 nM, 6 mM ATP and 400 μM HDAC5tide (each 2× final concentration), 30 minutes pre-incubation, 2 hours, ADP-Glo Max luminescence, read-out: SIK2 high ATP IC50 (μM) (Test Example 2).

Read-outs that look alike come from different tables or passages of the source.

Sequence of SIK2 (Q9H0K1 whole entry, species assumed): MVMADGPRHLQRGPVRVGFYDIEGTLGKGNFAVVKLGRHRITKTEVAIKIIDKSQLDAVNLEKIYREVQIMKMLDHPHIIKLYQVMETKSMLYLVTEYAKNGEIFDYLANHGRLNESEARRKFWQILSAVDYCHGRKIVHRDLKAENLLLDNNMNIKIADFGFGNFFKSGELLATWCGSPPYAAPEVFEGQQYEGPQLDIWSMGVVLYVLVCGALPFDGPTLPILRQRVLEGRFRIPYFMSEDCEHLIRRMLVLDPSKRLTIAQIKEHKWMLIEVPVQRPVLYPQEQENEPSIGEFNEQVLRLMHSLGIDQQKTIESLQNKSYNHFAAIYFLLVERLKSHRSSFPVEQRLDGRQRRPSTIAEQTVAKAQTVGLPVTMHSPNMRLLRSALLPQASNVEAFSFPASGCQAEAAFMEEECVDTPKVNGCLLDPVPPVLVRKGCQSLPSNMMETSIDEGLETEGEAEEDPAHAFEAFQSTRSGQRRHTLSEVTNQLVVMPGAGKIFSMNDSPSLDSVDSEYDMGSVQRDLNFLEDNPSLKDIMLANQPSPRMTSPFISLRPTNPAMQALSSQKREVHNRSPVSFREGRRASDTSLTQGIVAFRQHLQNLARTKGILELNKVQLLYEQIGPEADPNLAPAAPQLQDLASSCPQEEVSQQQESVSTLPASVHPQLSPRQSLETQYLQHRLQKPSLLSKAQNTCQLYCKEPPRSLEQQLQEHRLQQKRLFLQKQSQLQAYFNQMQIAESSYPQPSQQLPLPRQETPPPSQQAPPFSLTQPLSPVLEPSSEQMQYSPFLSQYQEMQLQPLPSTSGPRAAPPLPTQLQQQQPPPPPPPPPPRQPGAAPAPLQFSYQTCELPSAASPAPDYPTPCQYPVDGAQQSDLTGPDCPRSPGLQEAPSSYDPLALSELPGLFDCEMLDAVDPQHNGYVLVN

Regarding `Cc1cc(-c2ccn3nc(Nc4cc(C)nc(C)n4)cc3c2)c(OC[C@]2(O)CCCOC2)cn1` (single isomer, unassigned) [Example 608, (*S)-3-[[4-[2-[(2,6-dimethylpyrimidin-4-yl)amino]pyrazolo[1,5-a]pyridin-5-yl]-6-methyl-3-pyridyl]oxymethyl]tetrahydropyran-3-ol], the IC50 under setting [1] was found to be 0.0922 µM. On to `Cc1cc(-c2ccn3nc(Nc4cc(C)nc(C)n4)cc3c2)c(O[C@H]2CCS(=O)(=O)NC2)cn1` (single isomer, unassigned) [Example 610, (*S)—N-(2,6-dimethylpyrimidin-4-yl)-5-[5-(1,1-dioxothiazinan-4-yl)oxy-2-methyl-4-pyridyl]pyrazolo[1,5-a]pyridin-2-amine], for which the IC50 under setting [1] is 0.0829 µM. Turning to `Cc1cc(Nc2cc3cc(-c4cc(O[C@H](C)C#N)ncc4OCC(C)(C)C#N)ccn3n2)nc(C)n1` (single isomer, unassigned) [Example 680, (*R)-3-[[6-(1-cyanoethoxy)-4-[2-[(2,6-dimethylpyrimidin-4-yl)amino]pyrazolo[1,5-a]pyridin-5-yl]-3-pyridyl]oxy]-2,2-dimethyl-propanenitrile], under setting [1], the IC50 was found to be 0.0317 µM. Consider `Cc1cc(Nc2cc3cc(-c4cc(O[C@@H](C)C#N)ncc4OCC(C)(C)C#N)ccn3n2)nc(C)n1` (single isomer, unassigned) [Example 681, (*S)-3-[[6-(1-cyanoethoxy)-4-[2-[(2,6-dimethylpyrimidin-4-yl)amino]pyrazolo[1,5-a]pyridin-5-yl]-3-pyridyl]oxy]-2,2-dimethyl-propanenitrile], for which the IC50 under setting [1] worked out at 0.0347 µM.

Regarding `C[C@@H](C#N)Oc1cc(-c2ccn3nc(NC(=O)C4CC4)cc3c2)c(OCC(C)(C)C#N)cn1` (single isomer, unassigned) [Example 726, (*S)—N-[5-[2-(1-cyanoethoxy)-5-(2-cyano-2-methyl-propoxy)-4-pyridyl]pyrazolo[1,5-a]pyridin-2-yl]cyclopropanecarboxamide], the half-maximal inhibitory concentration (IC50) under setting [1] is 0.00251 µM. With `Cc1cc(Nc2cc3cc(-c4cc(OC(F)F)ncc4OC[C@@H]4CC(=O)NC4(C)C)ccn3n2)nc(C)n1` (single isomer, unassigned) [Example 731], the IC50 under setting [1] came to 0.00997 µM.

Consider `Cc1cc(Nc2cc3cc(-c4cc(OC(F)F)ncc4OC[C@H]4CC(=O)NC4(C)C)ccn3n2)nc(C)n1` (single isomer, unassigned) [Example 732, (*S)-4-[[6-(difluoromethoxy)-4-[2-[(2,6-dimethylpyrimidin-4-yl)amino]pyrazolo[1,5-a]pyridin-5-yl]-3-pyridyl]oxymethyl]-5,5-dimethyl-pyrrolidin-2-one], for which the IC50 under setting [1] is 0.00164 µM. In the case of `Cc1cc(Nc2cc3cc(-c4cc(OC(F)F)ncc4OC[C@@H]4CC(=O)NC4(C)C)ccn3n2)nc(C)n1` (single isomer, unassigned) [Example 738, (*R)-4-[[6-(difluoromethoxy)-4-[2-[(2,6-dimethylpyrimidin-4-yl)amino]pyrazolo[1,5-a]pyridin-5-yl]-3-pyridyl]oxymethyl]-5,5-dimethyl-pyrrolidin-2-one], the IC50 under setting [1] amounted to 0.00304 µM. For the molecule `Cc1cc(Nc2cc3cc(-c4cc(OC(F)F)ncc4OC[C@H]4CC(=O)NC4(C)C)ccn3n2)nc(C)n1` (single isomer, unassigned) [Example 739, (*S)-4-[[6-(difluoromethoxy)-4-[2-[(2,6-dimethylpyrimidin-4-yl)amino]pyrazolo[1,5-a]pyridin-5-yl]-3-pyridyl]oxymethyl]-5,5-dimethyl-pyrrolidin-2-one], the IC50 under setting [1] came out at 0.00119 µM.

In the case of `Cc1cc(Nc2cc3cc(-c4cc(OC(F)F)ncc4OCC(C)(N)C(F)(F)F)ccn3n2)nc(C)n1` (single isomer, unassigned) [Example 755, (*R)-5-[5-(2-amino-3,3,3-trifluoro-2-methyl-propoxy)-2-(difluoromethoxy)-4-pyridyl]-N-(2,6-dimethylpyrimidin-4-yl)pyrazolo[1,5-a]pyridin-2-amine], the IC50 under setting [1] was 0.00215 µM. Still for that read-out and setting: then `Cc1cc(Nc2cc3cc(-c4cc(OC(F)F)ncc4OCC(C)(N)C(F)(F)F)ccn3n2)nc(C)n1` (single isomer, unassigned) [Example 756, (*S)-5-[5-(2-amino-3,3,3-trifluoro-2-methyl-propoxy)-2-(difluoromethoxy)-4-pyridyl]-N-(2,6-dimethylpyrimidin-4-yl)pyrazolo[1,5-a]pyridin-2-amine], with 0.275 µM. In the case of `Cc1cc(-c2ccn3nc(NC(=O)C4CC4)cc3c2)c(O[C@@H]2CC[C@@H](O)C2)cn1` (stereo in doubt) [Example 569, (1*R, 3*R)—N-[5-[5-(3-hydroxycyclopentoxy)-2-methyl-4-pyridyl]pyrazolo[1,5-a]pyridin-2-yl]cyclopropanecarboxamide], the IC50 was found to be 0.0717 µM. For the molecule `Cc1cc(-c2ccn3nc(Nc4cnn(C(F)F)c4)cc3c2)c(O[C@H]2C[C@H]3COC[C@@H](C2)N3C)cn1` [Example 116, N-(1-(difluoromethyl)-1H-pyrazol-4-yl)-5-(2-methyl-5-(((1R,5S,7s)-9-methyl-3-oxa-9-azabicyclo[3.3.1]nonan-7-yl)oxy)pyridin-4-yl)pyrazolo[1,5-a]pyridin-2-amine], the IC50 was less than 0.000847 µM.

As for `Cc1cc(-c2ccn3nc(Nc4cnn(C(F)F)c4)cc3c2)c(O[C@H]2C[C@H]3COC[C@@H](C2)N3)cn1` [Example 117, 5-(5-(((1R,5S,7s)-3-oxa-9-azabicyclo[3.3.1]nonan-7-yl)oxy)-2-methylpyridin-4-yl)-N-(1-(difluoromethyl)-1H-pyrazol-4-yl)pyrazolo[1,5-a]pyridin-2-amine], the IC50 was found to be 0.000904 µM. Turning to `Cc1cc(-c2ccn3nc(Nc4nn(C)cc4F)cc3c2)c(O[C@H]2C[C@H]3COC[C@@H](C2)N3C)cn1` [Example 118, N-(4-fluoro-1-methyl-1H-pyrazol-3-yl)-5-(2-methyl-5-(((1R,5S,7s)-9-methyl-3-oxa-9-azabicyclo[3.3.1]nonan-7-yl)oxy)pyridin-4-yl)pyrazolo[1,5-a]pyridin-2-amine], the IC50 is less than 0.000847 µM. Consider `Cc1cc(-c2ccn3nc(Nc4cn(C)nc4F)cc3c2)c(O[C@H]2C[C@H]3COC[C@@H](C2)N3C)cn1` [Example 119, N-(3-fluoro-1-methyl-1H-pyrazol-4-yl)-5-(2-methyl-5-(((1R,5S,7s)-9-methyl-3-oxa-9-azabicyclo[3.3.1]nonan-7-yl)oxy)pyridin-4-yl)pyrazolo[1,5-a]pyridin-2-amine], for which the IC50 is 0.00127 µM.

With `Cc1cc(-c2ccn3nc(Nc4cc(F)n(C)n4)cc3c2)c(O[C@H]2C[C@H]3COC[C@@H](C2)N3C)cn1` [Example 120, N-(5-fluoro-1-methyl-1H-pyrazol-3-yl)-5-(2-methyl-5-(((1R,5S,7s)-9-methyl-3-oxa-9-azabicyclo[3.3.1]nonan-7-yl)oxy)pyridin-4-yl)pyrazolo[1,5-a]pyridin-2-amine], the IC50 is less than 0.000847 µM. Turning to `Cc1cc(-c2ccn3nc(Nc4cnn(CC(C)(C)O)c4)cc3c2)c(O[C@H]2C[C@H]3COC[C@@H](C2)N3)cn1` [Example 121], the IC50 was 0.00116 µM. Turning to `Cc1cc(-c2ccn3nc(Nc4cn(CC(C)(C)O)nc4C(=O)C(F)(F)F)cc3c2)c(O[C@H]2C[C@H]3COC[C@@H](C2)N3)cn1` [Example 122, 1-(4-((5-(5-(((1R,5S,7s)-3-oxa-9-azabicyclo[3.3.1]nonan-7-yl)oxy)-2-methylpyridin-4-yl)pyrazolo[1,5-a]pyridin-2-yl)amino)-1-(2-hydroxy-2-methylpropyl)-1H-pyrazol-3-yl)-2,2,2-trifluoroethan-1-one], half-maximal inhibition (IC50) required 2.43 µM.

Usually IC50 stands for the concentration that inhibits the measured activity by half.
